Test results published in patent US20110218191A1, “USE OF MELOXICAM FOR THE LONG TERM-TREATMENT OF KIDNEY DISORDERS IN CATS” (BOEHRINGER INGELHEIM VETMEDICA GMBH, priority 2010, published 2011).

Assays:
[1] = system: aged cats without chronic kidney disease (no-CKD); test: Retrospective case-controlled study: long-term meloxicam in aged cats without CKD (Group B) vs age matched untreated controls (Group D); type: in vivo, cat
From the text: The medical records of a feline-only practice were searched for cats with OA being treated with meloxicam during a 4 year period. A diagnosis of OA was based upon any two of the following: owner noted mobility changes and/or physical examination findings or radiographic changes. Cats included were older than 7 years and treated with meloxicam for a duration of more than 6 months. Biochemistry, urinalysis and body weight were regularly monitored. The progression of renal disease in the aged non-renal and renal group treated was compared to age matched and IRIS matched untreated controls from the same clinic. IRIS staging of CKD follows specific guidelines on the diagnosis and assessment of progression of renal disease in small animals as described below. Animals are being divided into […] categories according to the stage of their disease, see Table 1 (iris-kidney.com).
The database of a feline-only practice in suburban Melbourne was searched for cats which had been treated for chronic musculoskeletal diseases with meloxicam (Metacam® oral suspension, Boehringer Ingelheim) during a 4 year period. The diagnosis of osteoarthritis or spondylosis deformans had been made based upon any two of the following: owner noted mobility changes, physical examination findings or radiographic changes. The inclusion criteria included cats greater than 7 years old which had been treated continuously with meloxicam for a duration of more than 6 months and which had complete medical records available for review. In addition, cats were only included if serum biochemistry, urine analysis and body weight had been regularly monitored.
Young cats were excluded, as were cats with no pre-treatment renal parameter measurements. In addition cats were also excluded if the owner could not be contacted to check that the cats were still receiving daily treatment with meloxicam.
Age, breed, sex, concomitant diseases and medications as well as date treatment commenced, treatment duration and daily dose of meloxicam were recorded.
The majority of serum biochemistry determination was via external reference laboratory (Normal Range: Creatinine 0.08-0.20 mmol/L) and the remainder with an in-house IDEXX biochemistry and electrolyte machine (Normal Range: Creatinine 71-212 umol/L). In house urine specific gravity was determined with a Reichert Vet360 refractometer. Urine specific gravity was regularly compared to that measured by the same reference laboratory. Urine sediment examination and dipstick determination was carried out in-house with necessary urine cultures and urine protein. Urine creatinine determination was carried out at the same reference laboratory. […]
The median age of the renal and non-renal treated cats, median treatment duration and median maintenance dose was calculated. […]

[2] = system: aged cats with chronic kidney disease (CKD), IRIS stage 1-3; test: Retrospective case-controlled study: long-term meloxicam in aged cats with CKD (Group A) vs age and IRIS matched untreated controls (Group C); type: in vivo, cat
Protocol: The diagnosis of osteoarthritis or spondylosis deformans had been made based upon any two of the following: owner noted mobility changes, physical examination findings or radiographic changes. […] In addition, cats were only included if serum biochemistry, urine analysis and body weight had been regularly monitored. […]
In house urine specific gravity was determined with a Reichert Vet360 refractometer. Urine specific gravity was regularly compared to that measured by the same reference laboratory. […]

SMILES: Cc1cnc(NC(=O)C2=C(O)c3ccccc3S(=O)(=O)N2C)s1 [meloxicam]
- progression of creatinine ([1]; meloxicam treated no-CKD group (B) vs untreated no-CKD group): no significant difference
- differences from baseline in body weight ([1]; no-CKD meloxicam group (B) vs untreated no-CKD group (D), time adjusted AUC, Wilcoxon rank-sum-test): no statistically significant differences
- progression of renal parameters ([1]; non-renal group treated with meloxicam (B) vs non-renal group not treated, median maintenance dose 0.02 mg/kg daily, median treatment duration 327 days): no differences
- median maintenance dose after dose titration to the lowest effective dose ([1]; non-renal treated group (B), oral suspension): 0.02 mg/kg daily
- differences from baseline in body weight ([2]; CKD-meloxicam group (A) vs age and IRIS matched untreated CKD group (C), time adjusted AUC, Wilcoxon rank-sum-test): no statistically significant differences
- median maintenance dose after dose titration to the lowest effective dose ([2]; renal treated group (A), oral suspension): 0.02 mg/kg daily
